We go through 14 compounds from PubChem BioAssay AID328 (DTP/NCI, 2004).

The subject of the assay is BDF1 mice, P388 leukemia ip, median survival T/C. As to the kind of experiment: NCI In Vivo Anticancer Drug Screen. Data for tumor model P388 Leukemia (intraperitoneal) in B6D2F1 (BDF1) mice. To be noted: endpoint: median survival time, higher = longer survival. In outline: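 T/C = treated-group survival ÷ vehicle-control survival; tumour transplanted into mice before dosing.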

Where [1] appears, read: dose: 50.0 mg/kg/injection, schedule: Q01DX009 (ip), vehicle: saline with Tween-80.
[2] abbreviates: dose: 100.0 mg/kg/injection, schedule: Q01DX009 (ip), vehicle: saline with Tween-80.
Setting [3] is: dose: 100.0 mg/kg/injection, schedule: Q04DX003 (ip), vehicle: Klucel (hydroxypropylcellulose) (HPC).
The mark [4] stands for this setting: dose: 150.0 mg/kg/injection, schedule: Q01DX009 (ip), vehicle: saline with Tween-80.
[5] abbreviates: dose: 300.0 mg/kg/injection, schedule: Q01DX009 (ip), vehicle: saline with Tween-80.
Where [6] appears, read: dose: 100.0 mg/kg/injection, schedule: Q04DX003 (ip), vehicle: saline.
The mark [7] stands for this setting: dose: 200.0 mg/kg/injection, schedule: Q04DX003 (ip), vehicle: saline.
Setting [8] is: dose: 400.0 mg/kg/injection, schedule: Q04DX003 (ip), vehicle: saline with Tween-80.

Structures are written as SMILES. Where “and” joins values, the source holds several entries; their conditions need not be identical. Equal entries are not always repeated. Inconclusive results and toxic doses are left out.

`Clc1ccc2c(c1)-c1ccccc1C1=NCCN12`: the T/C by setting is: (dose: 2.5 mg/kg/injection, schedule: Q04DX003 (ip), vehicle: Klucel (hydroxypropylcellulose) (HPC)) 110 % of control; (dose: 4.4 mg/kg/injection, schedule: Q04DX003 (ip), vehicle: Klucel (hydroxypropylcellulose) (HPC)) 100 % of control; (dose: 5.0 mg/kg/injection, schedule: Q01DX009 (ip), vehicle: Klucel (hydroxypropylcellulose) (HPC)) 95 % of control; (dose: 5.0 mg/kg/injection, schedule: Q04DX003 (ip), vehicle: Klucel (hydroxypropylcellulose) (HPC)) 100 % of control; (dose: 6.6 mg/kg/injection, schedule: Q04DX003 (ip), vehicle: Klucel (hydroxypropylcellulose) (HPC)) 91 % of control; (dose: 10.0 mg/kg/injection, schedule: Q01DX009 (ip), vehicle: Klucel (hydroxypropylcellulose) (HPC)) 113 % of control. Further, the T/C (dose: 10.0 mg/kg/injection, schedule: Q04DX003 (ip), vehicle: Klucel (hydroxypropylcellulose) (HPC)) is 95 % of control; the T/C (dose: 15.0 mg/kg/injection, schedule: Q04DX003 (ip), vehicle: Klucel (hydroxypropylcellulose) (HPC)) is 91 % of control; the T/C (dose: 20.0 mg/kg/injection, schedule: Q01DX009 (ip), vehicle: Klucel (hydroxypropylcellulose) (HPC)) was 113 % of control.

For the compound `CCS(=O)(=O)OC1CCCCCCC1NC(=O)c1ccccc1` (configuration not stated), the T/C was 95 % of control (dose: 25.0 mg/kg/injection, schedule: Q01DX009 (ip), vehicle: saline with Tween-80); 109 % of control under setting [1]; 104 % of control under setting [2].

As for `OC(C1CCCCC1)(C1CCCCC1)C1CCCCC1`, the T/C by setting is: (dose: 100.0 mg/kg/injection, schedule: Q01DX009 (ip), vehicle: other) 104 % of control; under setting [3], 91 % of control; (dose: 200.0 mg/kg/injection, schedule: Q01DX009 (ip), vehicle: other) 100 % of control; (dose: 200.0 mg/kg/injection, schedule: Q04DX003 (ip), vehicle: Klucel (hydroxypropylcellulose) (HPC)) 100 % of control; (dose: 400.0 mg/kg/injection, schedule: Q01DX009 (ip), vehicle: other) 109 % of control; (dose: 400.0 mg/kg/injection, schedule: Q04DX003 (ip), vehicle: Klucel (hydroxypropylcellulose) (HPC)) 91 % of control.

On to `CC(C)(C(Cl)Cl)S(=O)(=O)O` (tested in a mixture with another compound), for which the T/C is 100 % of control (dose: 75.0 mg/kg/injection, schedule: Q01DX009 (ip), vehicle: saline with Tween-80); 110 % of control (dose: 75.0 mg/kg/injection, schedule: Q04DX003 (ip), vehicle: saline with Tween-80); 100 % of control under setting [4]; 100 % of control (dose: 150.0 mg/kg/injection, schedule: Q04DX003 (ip), vehicle: saline with Tween-80); 109 % of control under setting [5]; 110 % of control (dose: 300.0 mg/kg/injection, schedule: Q04DX003 (ip), vehicle: saline with Tween-80).

Turning to `COC(=O)C(CCC(=O)O)NC(=O)OCc1ccccc1` (configuration not stated), the T/C (dose: 25.0 mg/kg/injection, schedule: Q04DX003 (ip), vehicle: Klucel (hydroxypropylcellulose) (HPC)) was 104 % of control; the T/C (dose: 50.0 mg/kg/injection, schedule: Q04DX003 (ip), vehicle: Klucel (hydroxypropylcellulose) (HPC)) was 113 % of control; the T/C under setting [3] was 95 % of control and 109 % of control.

Take `CC(C)c1ncc(CCCN=C(N)N)[nH]c1=O`: the T/C reads like this: (dose: 37.5 mg/kg/injection, schedule: Q01DX009 (ip), vehicle: saline) 98 % of control; (dose: 75.0 mg/kg/injection, schedule: Q01DX009 (ip), vehicle: saline) 94 % of control; (dose: 150.0 mg/kg/injection, schedule: Q01DX009 (ip), vehicle: saline) 90 % of control.

`COc1cccc2c1C(=O)c1c(O)c3c(c(O)c1C2=O)C[C@@](O)(/C(C)=N/NC(=O)c1ccc(Cl)c(Cl)c1)C[C@@H]3OC1CC(N)C(O)C(C)O1` (some centres not stated): the T/C is, setting by setting: (dose: 0.5 mg/kg/injection, schedule: Q01DX009 (ip), vehicle: water) 202 % of control; (dose: 1.0 mg/kg/injection, schedule: Q01DX009 (ip), vehicle: water) 234 % of control and 156 % of control; (dose: 2.0 mg/kg/injection, schedule: Q01DX009 (ip), vehicle: water) 295 % of control and 186 % of control; (dose: 4.0 mg/kg/injection, schedule: Q01DX009 (ip), vehicle: water) 295 % of control and 186 % of control.

In the case of `COC1=NCN=C2SC=C(N)N=C12`, the T/C is, setting by setting: (dose: 12.5 mg/kg/injection, schedule: Q01DX009 (ip), vehicle: saline) 100 % of control; (dose: 25.0 mg/kg/injection, schedule: Q01DX009 (ip), vehicle: saline) 98 % of control; (dose: 50.0 mg/kg/injection, schedule: Q01DX009 (ip), vehicle: saline) 105 % of control.

For `Ic1ccccc1C[N+]12CN3CN(CN(C3)C1)C2`, the T/C was 108 % of control under setting [1]; 95 % of control (dose: 60.0 mg/kg/injection, schedule: Q01DX009 (ip), vehicle: alcohol); 95 % of control (dose: 85.0 mg/kg/injection, schedule: Q01DX009 (ip), vehicle: alcohol); 120 % of control under setting [2]; 115 % of control (dose: 100.0 mg/kg/injection, schedule: Q01DX009 (ip), vehicle: saline); 110 % of control (dose: 100.0 mg/kg/injection, schedule: Q04DX003 (ip), vehicle: saline with Tween-80). Further, the T/C under setting [6] is 118 % of control; the T/C (dose: 132.0 mg/kg/injection, schedule: Q01DX009 (ip), vehicle: saline with Tween-80) is 111 % of control; the T/C (dose: 200.0 mg/kg/injection, schedule: Q04DX003 (ip), vehicle: saline with Tween-80) was 110 % of control; the T/C under setting [7] is 113 % of control; the T/C under setting [5] was 100 % of control and 123 % of control; the T/C under setting [8] is 95 % of control. Further, the T/C (dose: 400.0 mg/kg/injection, schedule: Q04DX003 (ip), vehicle: saline) was 113 % of control.

In the case of `C[C@]12CCC(=O)C(O)=C1CC[C@@H]1[C@@H]2CC[C@@]2(C)[C@H]1CC[C@]2(C)O`, the T/C by setting is: (dose: 66.0 mg/kg/injection, schedule: Q01DX009 (ip), vehicle: saline with Tween-80) 104 % of control; under setting [2], 95 % of control; under setting [4], 95 % of control; (dose: 200.0 mg/kg/injection, schedule: Q01DX009 (ip), vehicle: saline sonified) 90 % of control; (dose: 400.0 mg/kg/injection, schedule: Q01DX009 (ip), vehicle: saline sonified) 90 % of control.

For the compound `O=C(O)c1ccccc1N=Cc1ccccc1O`, the T/C was 109 % of control (dose: 176.0 mg/kg/injection, schedule: Q04DX003 (ip), vehicle: saline with Tween-80); 109 % of control (dose: 264.0 mg/kg/injection, schedule: Q04DX003 (ip), vehicle: saline with Tween-80); 109 % of control under setting [8].

With `C[S+](C)CC(=O)c1ccccc1`, the T/C is 116 % of control (dose: 50.0 mg/kg/injection, schedule: Q01DX001 (ip), vehicle: saline); 91 % of control (dose: 50.0 mg/kg/injection, schedule: Q04DX003 (ip), vehicle: saline); 116 % of control (dose: 100.0 mg/kg/injection, schedule: Q01DX001 (ip), vehicle: saline); 95 % of control under setting [6]; 112 % of control (dose: 200.0 mg/kg/injection, schedule: Q01DX001 (ip), vehicle: saline); 95 % of control under setting [7].

Take `COC(=O)C(Cc1cnc2nc(N)nc(N)c2n1)C(=O)OC`: the T/C is, setting by setting: (dose: 1.56 mg/kg/injection, schedule: Q01DX009 (ip), vehicle: water) 100 % of control; (dose: 3.13 mg/kg/injection, schedule: Q01DX009 (ip), vehicle: water) 90 % of control; (dose: 6.25 mg/kg/injection, schedule: Q01DX009 (ip), vehicle: water) 100 % of control; (dose: 12.5 mg/kg/injection, schedule: Q01DX009 (ip), vehicle: water) 100 % of control; (dose: 25.0 mg/kg/injection, schedule: Q01DX009 (ip), vehicle: water) 111 % of control.

As for `CC(=O)CC(=O)NCCCc1ccccc1`, the T/C was 109 % of control (dose: 100.0 mg/kg/injection, schedule: Q04DX003 (sc), vehicle: olive oil, sesame oil, peanut oil); 100 % of control (dose: 200.0 mg/kg/injection, schedule: Q04DX003 (sc), vehicle: olive oil, sesame oil, peanut oil); 100 % of control (dose: 400.0 mg/kg/injection, schedule: Q04DX003 (sc), vehicle: olive oil, sesame oil, peanut oil).
